Here are results for 10 compounds from ChEMBL document CHEMBL5465560, “Selectivity Literature for EUbOPEN Chemogenomic Library” (2024).

Assay [1] addresses T1, Testis-specific serine/threonine-protein kinase 3 (Homo sapiens) (UniProt Q96PN8).
T1 sequence (whole entry): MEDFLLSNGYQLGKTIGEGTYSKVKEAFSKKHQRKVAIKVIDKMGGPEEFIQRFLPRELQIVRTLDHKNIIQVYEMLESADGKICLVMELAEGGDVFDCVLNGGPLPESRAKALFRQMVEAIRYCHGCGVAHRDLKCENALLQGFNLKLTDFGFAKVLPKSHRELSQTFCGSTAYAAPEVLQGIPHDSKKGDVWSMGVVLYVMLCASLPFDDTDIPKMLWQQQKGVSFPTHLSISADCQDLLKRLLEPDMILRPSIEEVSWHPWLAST
Put plainly: Selectivity interaction (Kinase panel (Z-LYTE Assay)) EUB0001632a TSSK3. The conditions noted are these: at 10 µM.

Assay [2] addresses Serine/threonine-protein kinase 10 (Homo sapiens) (UniProt O94804). To be noted: at 10 µM.
Assay [3] deals with Insulin receptor-related protein (Homo sapiens) (UniProt P14616). Nature of the assay: Selectivity interaction (KinomeScan (DiscoverX)) EUB0000229b INSRR. To be noted: at 10 µM.
For assay [4], the target named is 4-aminobutyrate aminotransferase, mitochondrial (Homo sapiens, UniProt P80404). Put plainly: Selectivity interaction (GPCR panel (PDSP screen)) EUB0001079a ABAT. The conditions noted are these: at 10 µM.
Assay [5] has as its target Serine/threonine-protein kinase 32C (Homo sapiens) (UniProt Q86UX6). Nature of the assay: Selectivity interaction (KinomeScan (DiscoverX)) EUB0001079a STK32C. To be noted: at 1 µM.
The target in assay [6] is T2, Aurora kinase A (Homo sapiens) (UniProt O14965).
T2 sequence (whole entry): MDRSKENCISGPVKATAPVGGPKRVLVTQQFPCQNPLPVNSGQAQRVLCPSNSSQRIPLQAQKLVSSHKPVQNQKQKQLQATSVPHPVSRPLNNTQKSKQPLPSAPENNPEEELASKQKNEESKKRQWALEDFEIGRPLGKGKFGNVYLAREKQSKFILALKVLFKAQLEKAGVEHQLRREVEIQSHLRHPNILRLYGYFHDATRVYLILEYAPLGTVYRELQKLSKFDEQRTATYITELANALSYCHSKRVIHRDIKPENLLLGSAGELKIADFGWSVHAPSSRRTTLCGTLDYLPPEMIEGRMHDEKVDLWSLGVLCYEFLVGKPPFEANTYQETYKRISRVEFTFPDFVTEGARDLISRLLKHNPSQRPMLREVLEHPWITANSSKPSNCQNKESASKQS
Put plainly: Selectivity interaction (ActivX KiNativ screen (kinase selectivity in THP-1 cell lysates)) EUB0000639a STK6. The assay is classed as subcellular. The conditions noted are these: lysate, at 0.2 µM.

For assay [7], the target named is T3, Myotonin-protein kinase (Homo sapiens) (UniProt Q09013).
T3 sequence (whole entry): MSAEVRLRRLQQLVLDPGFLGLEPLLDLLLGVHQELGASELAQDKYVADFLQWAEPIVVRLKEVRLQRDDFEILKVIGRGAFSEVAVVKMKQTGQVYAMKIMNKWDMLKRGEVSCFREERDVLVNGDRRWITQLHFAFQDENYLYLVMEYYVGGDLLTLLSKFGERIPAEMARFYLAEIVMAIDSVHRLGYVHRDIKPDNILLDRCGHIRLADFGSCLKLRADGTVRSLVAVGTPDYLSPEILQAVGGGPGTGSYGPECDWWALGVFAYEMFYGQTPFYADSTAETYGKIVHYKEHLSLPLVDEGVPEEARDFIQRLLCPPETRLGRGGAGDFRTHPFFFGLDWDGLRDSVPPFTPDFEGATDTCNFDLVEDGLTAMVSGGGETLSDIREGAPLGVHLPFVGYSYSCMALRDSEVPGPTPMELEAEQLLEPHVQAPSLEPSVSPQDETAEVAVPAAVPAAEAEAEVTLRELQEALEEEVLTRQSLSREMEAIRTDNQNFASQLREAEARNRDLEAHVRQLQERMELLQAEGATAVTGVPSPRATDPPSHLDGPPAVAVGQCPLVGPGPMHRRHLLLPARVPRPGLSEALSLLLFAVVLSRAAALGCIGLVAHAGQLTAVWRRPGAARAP
Nature of the assay: Selectivity interaction (KinomeScan (DiscoverX)) EUB0001049a DMPK. The conditions noted are these: at 1 µM.

Assay [8] deals with Tyrosine-protein kinase Lyn (Homo sapiens, UniProt P07948). Put plainly: Selectivity interaction (KinomeScan (DiscoverX)) EUB0000695a LYN. To be noted: at 100 nM.
Assay [9] deals with T4, Phosphatidylinositol 5-phosphate 4-kinase type-2 gamma (Homo sapiens) (UniProt Q8TBX8).
T4 sequence (whole entry): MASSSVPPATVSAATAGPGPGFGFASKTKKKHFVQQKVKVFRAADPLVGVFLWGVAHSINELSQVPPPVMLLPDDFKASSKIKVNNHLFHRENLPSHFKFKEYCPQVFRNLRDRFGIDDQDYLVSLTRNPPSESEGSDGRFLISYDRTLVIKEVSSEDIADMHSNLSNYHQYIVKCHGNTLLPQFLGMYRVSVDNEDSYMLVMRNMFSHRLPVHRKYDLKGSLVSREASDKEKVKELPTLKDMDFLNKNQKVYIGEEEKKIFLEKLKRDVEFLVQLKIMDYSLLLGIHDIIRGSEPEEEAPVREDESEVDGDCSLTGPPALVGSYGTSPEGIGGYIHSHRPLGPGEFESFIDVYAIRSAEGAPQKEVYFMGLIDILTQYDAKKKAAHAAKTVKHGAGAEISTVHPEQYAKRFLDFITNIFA
Put plainly: Selectivity interaction (KinomeScan (DiscoverX)) EUB0000092b PIP4K2C. The conditions noted are these: at 10 µM.

Assay [10] deals with T5, Tyrosine-protein kinase Tec (Homo sapiens) (UniProt P42680).
T5 sequence (whole entry): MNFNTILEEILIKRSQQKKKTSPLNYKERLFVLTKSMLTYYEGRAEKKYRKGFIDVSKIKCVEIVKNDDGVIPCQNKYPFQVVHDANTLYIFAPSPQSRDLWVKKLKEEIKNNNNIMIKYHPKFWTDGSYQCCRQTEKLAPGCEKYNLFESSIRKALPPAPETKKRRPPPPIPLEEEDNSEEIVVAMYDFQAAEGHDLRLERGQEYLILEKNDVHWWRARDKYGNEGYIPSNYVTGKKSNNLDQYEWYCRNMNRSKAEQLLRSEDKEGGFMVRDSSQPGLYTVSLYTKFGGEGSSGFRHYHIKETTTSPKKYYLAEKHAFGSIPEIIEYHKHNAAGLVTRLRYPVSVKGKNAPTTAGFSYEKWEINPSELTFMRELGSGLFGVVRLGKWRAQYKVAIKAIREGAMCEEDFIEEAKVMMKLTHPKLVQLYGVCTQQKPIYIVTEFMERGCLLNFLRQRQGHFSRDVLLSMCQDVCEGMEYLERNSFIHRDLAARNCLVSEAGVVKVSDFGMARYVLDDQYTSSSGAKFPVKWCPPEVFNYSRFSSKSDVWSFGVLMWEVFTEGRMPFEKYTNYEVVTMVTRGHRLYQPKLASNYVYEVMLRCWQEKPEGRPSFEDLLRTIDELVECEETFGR
Put plainly: Selectivity interaction (KinomeScan (DiscoverX)) EUB0001868a TEC. To be noted: at 1 µM.

Assay [11] concerns the target Phosphatidylinositol 4-phosphate 5-kinase type-1 gamma (Homo sapiens) (UniProt O60331). Nature of the assay: Selectivity interaction (KinomeScan (DiscoverX)) EUB0000045b PIP5K1C.

Sequence of Phosphatidylinositol 4-phosphate 5-kinase type-1 gamma (Homo sapiens) (O60331 whole entry): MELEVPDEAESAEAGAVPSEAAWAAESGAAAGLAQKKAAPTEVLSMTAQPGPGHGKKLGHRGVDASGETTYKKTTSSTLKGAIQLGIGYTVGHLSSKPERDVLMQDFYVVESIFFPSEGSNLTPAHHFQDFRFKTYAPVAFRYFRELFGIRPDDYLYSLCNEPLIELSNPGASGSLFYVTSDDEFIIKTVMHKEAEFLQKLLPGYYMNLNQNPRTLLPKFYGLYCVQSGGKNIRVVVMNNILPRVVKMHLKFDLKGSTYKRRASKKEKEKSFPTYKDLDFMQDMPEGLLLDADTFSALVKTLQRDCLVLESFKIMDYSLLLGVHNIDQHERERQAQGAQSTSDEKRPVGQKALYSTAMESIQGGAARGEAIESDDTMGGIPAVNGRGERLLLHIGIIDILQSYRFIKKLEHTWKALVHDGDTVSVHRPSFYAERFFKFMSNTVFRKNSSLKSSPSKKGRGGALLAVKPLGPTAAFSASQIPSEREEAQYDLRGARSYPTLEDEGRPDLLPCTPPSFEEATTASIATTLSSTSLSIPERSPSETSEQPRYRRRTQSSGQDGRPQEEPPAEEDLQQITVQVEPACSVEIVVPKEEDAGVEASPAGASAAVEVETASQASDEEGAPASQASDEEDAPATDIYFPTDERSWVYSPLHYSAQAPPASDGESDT
Sequence of 4-aminobutyrate aminotransferase, mitochondrial (P80404 whole entry): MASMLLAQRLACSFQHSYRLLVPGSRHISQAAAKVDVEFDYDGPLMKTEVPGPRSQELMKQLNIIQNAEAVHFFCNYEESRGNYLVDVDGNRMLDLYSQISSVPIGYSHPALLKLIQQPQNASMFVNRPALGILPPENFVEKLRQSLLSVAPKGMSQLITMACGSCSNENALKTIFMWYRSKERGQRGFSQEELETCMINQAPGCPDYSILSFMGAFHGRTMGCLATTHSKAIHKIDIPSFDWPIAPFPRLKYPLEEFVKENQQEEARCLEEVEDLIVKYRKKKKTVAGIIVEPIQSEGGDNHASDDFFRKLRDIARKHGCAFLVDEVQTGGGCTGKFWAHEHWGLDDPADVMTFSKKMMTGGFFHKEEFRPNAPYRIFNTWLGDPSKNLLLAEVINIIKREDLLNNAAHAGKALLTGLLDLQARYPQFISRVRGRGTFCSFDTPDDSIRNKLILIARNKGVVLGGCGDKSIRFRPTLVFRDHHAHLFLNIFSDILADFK
Sequence of Serine/threonine-protein kinase 10 (Homo sapiens) (O94804 whole entry, looked up): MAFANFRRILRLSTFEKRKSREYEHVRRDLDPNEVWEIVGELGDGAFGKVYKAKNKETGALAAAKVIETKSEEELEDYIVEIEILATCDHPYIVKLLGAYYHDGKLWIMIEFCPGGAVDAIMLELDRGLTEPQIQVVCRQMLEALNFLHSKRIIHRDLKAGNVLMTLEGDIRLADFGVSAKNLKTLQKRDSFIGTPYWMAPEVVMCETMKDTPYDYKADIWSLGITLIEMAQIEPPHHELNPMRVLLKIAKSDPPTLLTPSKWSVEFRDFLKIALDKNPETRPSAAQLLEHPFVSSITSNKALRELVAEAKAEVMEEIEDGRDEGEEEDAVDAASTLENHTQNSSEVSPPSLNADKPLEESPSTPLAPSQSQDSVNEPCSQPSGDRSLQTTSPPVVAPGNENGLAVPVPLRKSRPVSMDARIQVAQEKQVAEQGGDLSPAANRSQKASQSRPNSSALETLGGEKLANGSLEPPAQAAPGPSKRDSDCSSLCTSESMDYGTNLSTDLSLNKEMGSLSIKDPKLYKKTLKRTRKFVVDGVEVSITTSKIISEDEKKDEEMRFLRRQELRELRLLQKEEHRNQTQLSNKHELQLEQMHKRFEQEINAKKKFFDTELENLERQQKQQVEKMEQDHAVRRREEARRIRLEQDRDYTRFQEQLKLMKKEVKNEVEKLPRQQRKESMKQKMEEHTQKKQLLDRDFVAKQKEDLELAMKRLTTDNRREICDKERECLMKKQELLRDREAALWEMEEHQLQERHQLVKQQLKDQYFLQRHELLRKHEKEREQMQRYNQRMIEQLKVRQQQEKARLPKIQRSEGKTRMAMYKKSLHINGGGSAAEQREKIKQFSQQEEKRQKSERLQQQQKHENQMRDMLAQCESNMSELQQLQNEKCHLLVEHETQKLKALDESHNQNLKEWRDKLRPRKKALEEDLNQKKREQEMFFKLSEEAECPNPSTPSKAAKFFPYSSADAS
Sequence of Insulin receptor-related protein (Homo sapiens) (P14616 27-742 limits assumed): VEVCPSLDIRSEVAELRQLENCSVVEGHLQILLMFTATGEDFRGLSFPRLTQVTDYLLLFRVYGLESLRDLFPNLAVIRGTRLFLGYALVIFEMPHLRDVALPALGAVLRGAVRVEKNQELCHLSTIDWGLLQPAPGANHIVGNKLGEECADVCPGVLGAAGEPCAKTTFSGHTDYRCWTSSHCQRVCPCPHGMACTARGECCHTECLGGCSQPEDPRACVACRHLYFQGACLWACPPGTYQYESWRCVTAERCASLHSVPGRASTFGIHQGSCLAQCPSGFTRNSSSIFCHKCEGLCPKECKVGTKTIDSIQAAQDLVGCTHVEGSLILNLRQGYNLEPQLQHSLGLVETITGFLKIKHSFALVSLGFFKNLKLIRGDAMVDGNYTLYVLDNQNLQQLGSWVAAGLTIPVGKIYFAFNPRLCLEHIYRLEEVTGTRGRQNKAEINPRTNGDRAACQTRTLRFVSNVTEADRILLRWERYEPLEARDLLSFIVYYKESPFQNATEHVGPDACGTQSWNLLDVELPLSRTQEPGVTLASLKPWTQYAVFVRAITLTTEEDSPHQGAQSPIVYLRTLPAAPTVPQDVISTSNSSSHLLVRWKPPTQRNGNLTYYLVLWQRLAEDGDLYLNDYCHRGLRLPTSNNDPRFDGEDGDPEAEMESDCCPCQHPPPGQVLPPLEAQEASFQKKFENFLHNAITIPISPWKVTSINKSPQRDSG
Sequence of Insulin receptor-related protein (Homo sapiens) (P14616 747-1297 limits assumed): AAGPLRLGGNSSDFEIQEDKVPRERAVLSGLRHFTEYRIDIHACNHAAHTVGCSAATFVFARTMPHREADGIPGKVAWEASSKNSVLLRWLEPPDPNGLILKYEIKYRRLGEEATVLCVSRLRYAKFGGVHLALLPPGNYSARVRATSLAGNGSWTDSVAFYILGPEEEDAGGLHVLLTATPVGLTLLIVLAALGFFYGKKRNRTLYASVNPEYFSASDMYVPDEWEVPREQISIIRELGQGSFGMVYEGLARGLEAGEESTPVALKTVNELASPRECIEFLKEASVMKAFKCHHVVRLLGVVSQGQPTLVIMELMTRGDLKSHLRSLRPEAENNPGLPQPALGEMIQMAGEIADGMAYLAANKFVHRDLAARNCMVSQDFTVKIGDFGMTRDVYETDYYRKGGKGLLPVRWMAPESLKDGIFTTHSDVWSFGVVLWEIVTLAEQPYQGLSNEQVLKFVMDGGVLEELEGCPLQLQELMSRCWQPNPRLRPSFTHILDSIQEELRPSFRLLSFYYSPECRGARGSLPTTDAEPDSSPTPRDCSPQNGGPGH
Sequence of Tyrosine-protein kinase Lyn (P07948 2-512 limits assumed): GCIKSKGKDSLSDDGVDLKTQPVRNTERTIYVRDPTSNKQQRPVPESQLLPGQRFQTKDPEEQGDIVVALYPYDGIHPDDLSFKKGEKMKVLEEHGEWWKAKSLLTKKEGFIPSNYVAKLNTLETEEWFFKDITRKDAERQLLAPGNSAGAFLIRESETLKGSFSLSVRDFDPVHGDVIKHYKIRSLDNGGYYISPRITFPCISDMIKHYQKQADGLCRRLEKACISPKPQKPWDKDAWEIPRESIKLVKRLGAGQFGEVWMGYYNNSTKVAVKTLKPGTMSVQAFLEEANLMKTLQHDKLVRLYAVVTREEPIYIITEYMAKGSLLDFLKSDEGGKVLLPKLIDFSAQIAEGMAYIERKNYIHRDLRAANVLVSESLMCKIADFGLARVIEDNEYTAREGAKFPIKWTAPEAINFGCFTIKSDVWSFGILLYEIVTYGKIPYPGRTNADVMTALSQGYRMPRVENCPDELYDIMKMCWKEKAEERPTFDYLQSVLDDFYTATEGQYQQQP
Sequence of Serine/threonine-protein kinase 32C (Homo sapiens) (Q86UX6 whole entry): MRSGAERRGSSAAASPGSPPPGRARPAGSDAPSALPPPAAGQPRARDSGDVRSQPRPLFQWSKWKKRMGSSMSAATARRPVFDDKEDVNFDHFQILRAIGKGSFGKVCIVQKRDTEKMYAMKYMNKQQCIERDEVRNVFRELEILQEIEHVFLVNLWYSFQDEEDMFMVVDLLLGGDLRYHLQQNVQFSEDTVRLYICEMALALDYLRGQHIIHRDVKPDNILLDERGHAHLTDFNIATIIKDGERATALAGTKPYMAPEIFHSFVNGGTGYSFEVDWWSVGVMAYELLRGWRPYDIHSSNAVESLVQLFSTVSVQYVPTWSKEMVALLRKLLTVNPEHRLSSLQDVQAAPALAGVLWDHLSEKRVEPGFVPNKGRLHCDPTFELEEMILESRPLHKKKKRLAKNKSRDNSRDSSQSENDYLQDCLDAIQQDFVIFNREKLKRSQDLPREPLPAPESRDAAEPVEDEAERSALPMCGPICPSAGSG

Turning to `Cn1cc(-n2cnc3c(NCc4nc5cc(Cl)c(Cl)cc5[nH]4)nc(N4CCOCC4)nc32)cn1`, the % of control in assay [1] came out at 4.44%.
Turning to `Cc1cc([C@@H](C)Nc2ccccc2C(=O)O)c2nc(N3CCOCC3)cc(=O)n2c1` [AZD-6482], the % of control in [2] was 100%.
Consider `COc1cc(N(C)c2ccnc3ccc(C(F)(F)F)cc23)cc(OC)c1OC`, for which, in assay [3], the % binding turned out to be 76%.
For the compound `Nc1cnc(N2CCc3cc(S(=O)(=O)Nc4c(F)cc(Cl)cc4F)cc(N4CCCC4=O)c32)nc1` [TP-020n], in [4], the % of inhibition is -2.65%. This compound also registered a % of control in [5] of 100%.
With `CC[C@@H]1[C@H](F)C(=O)N[C@@H]1COc1nccc2cc(C(N)=O)c(OC)cc12` [ZIMLOVISERTIB], the % of inhibition in assay [6] was -1%.
Compound `COc1cc(Nc2nc(C)cc(-c3cnn4nc(OC)ccc34)n2)cc(C(F)(F)F)c1` registered a % of control in assay [7] of 100%.
In assay [8], `Cc1cc(F)c(C(=O)Nc2cccc(-c3nncn3C(C)C)n2)cc1-n1cnc(C2CC2)c1` gave a % of control of 100%.
In assay [9], `CCC(=O)N1CCN(c2ccc(-n3c(=O)ccc4cnc5ccc(-c6cnc7ccccc7c6)cc5c43)cc2C(F)(F)F)CC1` returned a % of control of 58%.
In assay [10], `Cc1cc(-c2ccnc(Nc3cnn(C)c3)n2)ccc1CNC(=O)N1CC(OC(C)C)C1` yielded a % of control of 46%.
`C=CC(=O)Nc1cc(-n2c(=O)ccc3cnc4ccc(-c5ccc(NS(C)(=O)=O)cc5)cc4c32)ccc1C`: the figures for the % of control in assay [11] (at 1 µM) and in assay [11] (at 10 µM) were 89% and 29%, respectively.
